Experimental data reported in publication PMC10885153, “Membrane Permeability in a Large Macrocyclic Peptide Driven by a Saddle-Shaped Conformation” (Journal of the American Chemical Society, 2024).
Positions of bridges follow the written chain, without caps; N, C: chain ends. Non-standard residues stand in square brackets, D forms with d. Residues, ends and D or L forms follow the SMILES beside them. Cha = N[C@@H](CC1CCCCC1)C(=O)O; NMeNva = CCC[C@H](NC)C(=O)O; NMeAbu = CC[C@H](NC)C(=O)O; NMeC = CN[C@@H](CS)C(=O)O; NMeA = CN[C@@H](C)C(=O)O; dAbu = CC[C@@H](N)C(=O)O; dNMeA = CN[C@H](C)C(=O)O; Nva = CCC[C@H](N)C(=O)O; Abu = CC[C@H](N)C(=O)O; NPrGly = CCCNCC(=O)O; NEtG = CCNCC(=O)O

SMILES | %R_avg (PAMPA, 10 µM, pH 7.4) | Pe_avg (PAMPA, 10 µM, pH 7.4) | PAMPA Pe_avg
CCC[C@@H]1NC(=O)[C@H](C)N(C)C(=O)[C@H](CC(C)C)NC(=O)CSC[C@@H](C(=O)OCC)N(C)C(=O)[C@H](CC(C)C)NC(=O)[C@H](C)N(C)C(=O)[C@H](CC)NC(=O)CN(CCC)C(=O)[C@H]2CCCN2C1=O [LA03, O=C(N(C)[C@H](C(OCC)=O)CSCC(N[C@H](C(N(C)[C@@H](C)C(N[C@@H](CCC)C(N1[C@H](CCC1)C(N(CCC)CC(N[C@H]2CC)=O)=O)=O)=O)=O)CC(C)C)=O)[C@H](CC(C)C)NC([C@H](C)N(C)C2=O)=O] ({CH2CO}-L[NMeA][Nva][dP][NPrGly][Abu][NMeA]L[NMeC]-OEt; thioether N-9) | 25.8% | – | –
CCC[C@@H]1NC(=O)[C@H](C)N(C)C(=O)[C@H](CC(C)C)NC(=O)CSC[C@@H](C(=O)OCC)N(C)C(=O)[C@H](CC(C)C)NC(=O)[C@H](C)N(C)C(=O)[C@H](CC(C)C)NC(=O)CN(CC)C(=O)[C@H]2CCCN2C1=O [LA05, O=C(N(C)[C@H](C(OCC)=O)CSCC(N[C@H](C(N(C)[C@@H](C)C(N[C@@H](CCC)C(N1[C@H](CCC1)C(N(CC)CC(N[C@H]2CC(C)C)=O)=O)=O)=O)=O)CC(C)C)=O)[C@H](CC(C)C)NC([C@H](C)N(C)C2=O)=O] ({CH2CO}-L[NMeA][Nva][dP][NEtG]L[NMeA]L[NMeC]-OEt; thioether N-9) | 12.8% | – | –
CCOC(=O)[C@@H]1CSCC(=O)N[C@@H](CC(C)C)C(=O)N(C)[C@@H](C)C(=O)N[C@@H](CC(C)C)C(=O)N2CCC[C@@H]2C(=O)N(C)[C@@H](CC)C(=O)N[C@@H](CC2CCCCC2)C(=O)N(C)[C@@H](C)C(=O)N[C@@H](CC(C)C)C(=O)N1C [LC10, O=C(N(C)[C@H](C(OCC)=O)CSCC(N[C@H](C(N(C)[C@@H](C)C(N[C@@H](CC(C)C)C(N1[C@H](CCC1)C(N(C)[C@@H](CC)C(N[C@H]2CC3CCCCC3)=O)=O)=O)=O)=O)CC(C)C)=O)[C@H](CC(C)C)NC([C@H](C)N(C)C2=O)=O] ({CH2CO}-L[NMeA]L[dP][NMeAbu][Cha][NMeA]L[NMeC]-OEt; thioether N-9) | 10.5% | – | –
CCOC(=O)[C@@H]1CSCC(=O)N[C@@H](CC)C(=O)N(C)[C@@H](C)C(=O)N[C@H](CC(C)C)C(=O)N2CCC[C@@H]2C(=O)N(CC)CC(=O)N[C@@H](CC(C)C)C(=O)N(C)[C@H](C)C(=O)N[C@@H](CC(C)C)C(=O)N1C [JF206_ADL_LDLD_Ethyl] ({CH2CO}-[Abu][NMeA][dL][dP][NEtG]L[dNMeA]L[NMeC]-OEt; thioether N-9) | – | – | 0 ×10⁻⁶ cm/s
CCC[C@@H]1NC(=O)[C@H](C)N(C)C(=O)[C@H](CC(C)C)NC(=O)CSC[C@@H](C(=O)OCC)N(C)C(=O)[C@H](CC(C)C)NC(=O)[C@H](C)N(C)C(=O)[C@H](CC)NC(=O)[C@H](CC)N(C)C(=O)[C@H]2CCCN2C1=O [LC01, O=C(N(C)[C@H](C(OCC)=O)CSCC(N[C@H](C(N(C)[C@@H](C)C(N[C@@H](CCC)C(N1[C@H](CCC1)C(N(C)[C@@H](CC)C(N[C@H]2CC)=O)=O)=O)=O)=O)CC(C)C)=O)[C@H](CC(C)C)NC([C@H](C)N(C)C2=O)=O] ({CH2CO}-L[NMeA][Nva][dP][NMeAbu][Abu][NMeA]L[NMeC]-OEt; thioether N-9) | 30.1% | – | –
CCC[C@@H]1NC(=O)[C@H](C)N(C)C(=O)[C@H](CC(C)C)NC(=O)CSC[C@@H](C(=O)OCC)N(C)C(=O)[C@H](CC(C)C)NC(=O)[C@H](C)N(C)C(=O)[C@H](CC(C)C)NC(=O)[C@H](CC)N(C)C(=O)[C@H]2CCCN2C1=O [LC05, O=C(N(C)[C@H](C(OCC)=O)CSCC(N[C@H](C(N(C)[C@@H](C)C(N[C@@H](CCC)C(N1[C@H](CCC1)C(N(C)[C@@H](CC)C(N[C@H]2CC(C)C)=O)=O)=O)=O)=O)CC(C)C)=O)[C@H](CC(C)C)NC([C@H](C)N(C)C2=O)=O] ({CH2CO}-L[NMeA][Nva][dP][NMeAbu]L[NMeA]L[NMeC]-OEt; thioether N-9) | 7.6% | – | –
CCC[C@@H]1NC(=O)[C@H](C)N(C)C(=O)[C@H](CC(C)C)NC(=O)CSC[C@@H](C(=O)OCC)N(C)C(=O)[C@H](CC(C)C)NC(=O)[C@H](C)N(C)C(=O)[C@H](CC)NC(=O)CN(CC)C(=O)[C@H]2CCCN2C1=O [LA01, O=C(N(C)[C@H](C(OCC)=O)CSCC(N[C@H](C(N(C)[C@@H](C)C(N[C@@H](CCC)C(N1[C@H](CCC1)C(N(CC)CC(N[C@H]2CC)=O)=O)=O)=O)=O)CC(C)C)=O)[C@H](CC(C)C)NC([C@H](C)N(C)C2=O)=O] ({CH2CO}-L[NMeA][Nva][dP][NEtG][Abu][NMeA]L[NMeC]-OEt; thioether N-9) | 33.1% | – | –
CCOC(=O)[C@@H]1CSCC(=O)N[C@H](CC)C(=O)N(C)[C@@H](C)C(=O)N[C@H](CC(C)C)C(=O)N2CCC[C@@H]2C(=O)N(CC)CC(=O)N[C@@H](CC(C)C)C(=O)N(C)[C@@H](C)C(=O)N[C@@H](CC(C)C)C(=O)N1C [JF206_ADD_DDLL_Ethyl] ({CH2CO}-[dAbu][NMeA][dL][dP][NEtG]L[NMeA]L[NMeC]-OEt; thioether N-9) | – | – | 0 ×10⁻⁶ cm/s

Continued, values first:

%R_avg (PAMPA, 10 µM, pH 7.4) | Pe_avg (PAMPA, 10 µM, pH 7.4) | PAMPA Pe_avg | SMILES
5.1% | – | – | CCOC(=O)[C@@H]1CSCC(=O)N[C@@H](CC(C)C)C(=O)N(C)[C@@H](C)C(=O)N[C@@H](CC(C)C)C(=O)N2CCC[C@@H]2C(=O)N(CC)CC(=O)N[C@@H](CC(C)C)C(=O)N(C)[C@@H](C)C(=O)N[C@@H](CC(C)C)C(=O)N1C [LA06, O=C(N(C)[C@H](C(OCC)=O)CSCC(N[C@H](C(N(C)[C@@H](C)C(N[C@@H](CC(C)C)C(N1[C@H](CCC1)C(N(CC)CC(N[C@H]2CC(C)C)=O)=O)=O)=O)=O)CC(C)C)=O)[C@H](CC(C)C)NC([C@H](C)N(C)C2=O)=O] ({CH2CO}-L[NMeA]L[dP][NEtG]L[NMeA]L[NMeC]-OEt; thioether N-9)
8.0% | – | – | CCOC(=O)[C@@H]1CSCC(=O)N[C@@H](CC(C)C)C(=O)N(CC)CC(=O)N[C@@H](CC(C)C)C(=O)N2CCC[C@@H]2C(=O)N(C)[C@@H](C)C(=O)N[C@@H](CC2CCCCC2)C(=O)N(C)[C@@H](C)C(=O)N[C@@H](CC(C)C)C(=O)N1C [LB10, O=C(N(C)[C@H](C(OCC)=O)CSCC(N[C@H](C1=O)CC(C)C)=O)[C@H](CC(C)C)NC([C@H](C)N(C)C([C@H](CC2CCCCC2)NC([C@H](C)N(C)C([C@@H]3N(C([C@H](CC(C)C)NC(CN1CC)=O)=O)CCC3)=O)=O)=O)=O] ({CH2CO}-L[NEtG]L[dP][NMeA][Cha][NMeA]L[NMeC]-OEt; thioether N-9)
61.4% | – | – | CCC[C@@H]1NC(=O)CN(CCC)C(=O)[C@H](CC(C)C)NC(=O)CSC[C@@H](C(=O)OCC)N(C)C(=O)[C@H](CC(C)C)NC(=O)[C@H](C)N(C)C(=O)[C@H](CC)NC(=O)[C@H](C)N(C)C(=O)[C@H]2CCCN2C1=O [LB03, O=C(N(C)[C@H](C(OCC)=O)CSCC(N[C@H](C1=O)CC(C)C)=O)[C@H](CC(C)C)NC([C@H](C)N(C)C([C@H](CC)NC([C@H](C)N(C)C([C@@H]2N(C([C@H](CCC)NC(CN1CCC)=O)=O)CCC2)=O)=O)=O)=O] ({CH2CO}-L[NPrGly][Nva][dP][NMeA][Abu][NMeA]L[NMeC]-OEt; thioether N-9)
9.2% | 0 ×10⁻⁶ cm/s | – | CCCN1CC(=O)N[C@@H](CC2CCCCC2)C(=O)N(C)[C@@H](C)C(=O)N[C@@H](CC(C)C)C(=O)N(C)[C@H](C(=O)OCC)CSCC(=O)N[C@@H](CC(C)C)C(=O)N(C)[C@@H](C)C(=O)N[C@@H](CC(C)C)C(=O)N2CCC[C@@H]2C1=O [LA12, O=C(N(C)[C@H](C(OCC)=O)CSCC(N[C@H](C(N(C)[C@@H](C)C(N[C@@H](CC(C)C)C(N1[C@H](CCC1)C(N(CCC)CC(N[C@H]2CC3CCCCC3)=O)=O)=O)=O)=O)CC(C)C)=O)[C@H](CC(C)C)NC([C@H](C)N(C)C2=O)=O] ({CH2CO}-L[NMeA]L[dP][NPrGly][Cha][NMeA]L[NMeC]-OEt; thioether N-9)
20.3% | – | – | CCC[C@@H]1NC(=O)[C@H](C)N(C)C(=O)[C@H](CC(C)C)NC(=O)CSC[C@@H](C(=O)OCC)N(C)C(=O)[C@H](CC(C)C)NC(=O)[C@H](C)N(C)C(=O)[C@H](CC)NC(=O)[C@H](CCC)N(C)C(=O)[C@H]2CCCN2C1=O [LC03, O=C(N(C)[C@H](C(OCC)=O)CSCC(N[C@H](C(N(C)[C@@H](C)C(N[C@@H](CCC)C(N1[C@H](CCC1)C(N(C)[C@@H](CCC)C(N[C@H]2CC)=O)=O)=O)=O)=O)CC(C)C)=O)[C@H](CC(C)C)NC([C@H](C)N(C)C2=O)=O] ({CH2CO}-L[NMeA][Nva][dP][NMeNva][Abu][NMeA]L[NMeC]-OEt; thioether N-9)
12.6% | – | – | CCOC(=O)[C@@H]1CSCC(=O)N[C@@H](CC(C)C)C(=O)N(CC)CC(=O)N[C@@H](CC(C)C)C(=O)N2CCC[C@@H]2C(=O)N(C)[C@@H](C)C(=O)N[C@@H](CC(C)C)C(=O)N(C)[C@@H](C)C(=O)N[C@@H](CC(C)C)C(=O)N1C [LB06, O=C(N(C)[C@H](C(OCC)=O)CSCC(N[C@H](C1=O)CC(C)C)=O)[C@H](CC(C)C)NC([C@H](C)N(C)C([C@H](CC(C)C)NC([C@H](C)N(C)C([C@@H]2N(C([C@H](CC(C)C)NC(CN1CC)=O)=O)CCC2)=O)=O)=O)=O] ({CH2CO}-L[NEtG]L[dP][NMeA]L[NMeA]L[NMeC]-OEt; thioether N-9)
4.6% | – | – | CCOC(=O)[C@@H]1CSCC(=O)N[C@@H](CC(C)C)C(=O)N(C)[C@@H](C)C(=O)N[C@@H](CC(C)C)C(=O)N2CCC[C@@H]2C(=O)N(C)[C@@H](CC)C(=O)N[C@@H](CC(C)C)C(=O)N(C)[C@@H](C)C(=O)N[C@@H](CC(C)C)C(=O)N1C [LC06, O=C(N(C)[C@H](C(OCC)=O)CSCC(N[C@H](C(N(C)[C@@H](C)C(N[C@@H](CC(C)C)C(N1[C@H](CCC1)C(N(C)[C@@H](CC)C(N[C@H]2CC(C)C)=O)=O)=O)=O)=O)CC(C)C)=O)[C@H](CC(C)C)NC([C@H](C)N(C)C2=O)=O] ({CH2CO}-L[NMeA]L[dP][NMeAbu]L[NMeA]L[NMeC]-OEt; thioether N-9)
4.6% | – | – | CCC[C@H]1C(=O)N[C@@H](CC(C)C)C(=O)N(C)[C@@H](C)C(=O)N[C@@H](CC(C)C)C(=O)N(C)[C@H](C(=O)OCC)CSCC(=O)N[C@@H](CC(C)C)C(=O)N(C)[C@@H](C)C(=O)N[C@@H](CC(C)C)C(=O)N2CCC[C@@H]2C(=O)N1C [LC08, O=C(N(C)[C@H](C(OCC)=O)CSCC(N[C@H](C(N(C)[C@@H](C)C(N[C@@H](CC(C)C)C(N1[C@H](CCC1)C(N(C)[C@@H](CCC)C(N[C@H]2CC(C)C)=O)=O)=O)=O)=O)CC(C)C)=O)[C@H](CC(C)C)NC([C@H](C)N(C)C2=O)=O] ({CH2CO}-L[NMeA]L[dP][NMeNva]L[NMeA]L[NMeC]-OEt; thioether N-9)
